Data published in DBAASP.
Converted amounts (≈) assume the structure as drawn. “And” between values parts separate entries of the source, which are not always exact repeats. Equal entries are not always repeated.

What was measured:
Assay in all cases: ≥ marks a high value that may be exact or a test limit, other limits are often not marked, values filed in µg/mL are converted to µM
[1] = test system: Escherichia coli NCTC 10418
[2] = test system: Pseudomonas aeruginosa ATCC 27853
[3] = test system: Staphylococcus aureus ATCC 12493
[4] = test system: Staphylococcus aureus NCTC 10788
[5] = test system: Candida albicans NCYC 1467
[6] = test system: Staphylococcus aureus
[7] = test system: Enterococcus faecalis NCTC 12697
[8] = test system: Klebsiella pneumoniae ATCC 43816
[9] = test system: Yersinia pseudotuberculosis YPIII
[10] = test system: Bacillus megaterium Bm11
[11] = test system: Staphylococcus epidermidis ATCC 12228
[12] = test system: Staphylococcus capitis 1
[13] = test system: Saccharomyces cerevisiae
[14] = test system: Acinetobacter baumannii ATCC 19606
[15] = test system: Candida albicans ATCC 10231
[16] = test system: Schizosaccharomyces pombe
[17] = test system: Streptococcus pyogenes ATCC 21547
[18] = test system: Staphylococcus aureus Cowan 1
[19] = test system: Pseudomonas aeruginosa ATCC 15692
[20] = test system: Enterococcus faecalis ATCC 29212
[21] = test system: Escherichia coli ATCC 25922
[22] = test system: Escherichia coli D21
[23] = test system: Acinetobacter junii RT-4
[24] = test system: Pseudomonas syringae pv. tabaci 1918NCPPB
[25] = test system: Staphylococcus aureus ATCC 25923
[26] = test system: Staphylococcus aureus ATCC 6538
[27] = test system: Pseudomonas aeruginosa ATCC 9027
[28] = test system: Proteus vulgaris NCTC 4635
[29] = test system: Escherichia coli ATCC 8739
[30] = test system: Bacillus subtilis ATCC 9372
[31] = test system: Escherichia coli UB1005
[32] = test system: Escherichia coli DC2
[33] = test system: Corynebacterium xerosis C875
[34] = test system: Staphylococcus epidermidis C621
[35] = test system: Salmonella enterica subsp. enterica serovar Typhimurium ATCC 14028
[36] = test system: Klebsiella pneumoniae ATCC 10031
[37] = test system: Staphylococcus aureus TK784
[38] = test system: Shigella dysenteriae ATCC 9752
[39] = test system: Micrococcus luteus ATCC 10240
[40] = test system: Staphylococcus aureus ATCC 6538P
[41] = test system: Bacillus subtilis ATCC 6633
[42] = test system: Staphylococcus aureus ATCC 29213
[43] = test system: Candida tropicalis ATCC 37097
[44] = test system: Candida albicans ATCC 37092

`CC[C@H](C)[C@H](NC(=O)[C@H](CO)NC(=O)[C@H](CCCCN)NC(=O)[C@H](Cc1c[nH]c2ccccc12)NC(=O)[C@H](CC(C)C)NC(=O)[C@H](C)N)C(=O)N[C@@H](CC(C)C)C(=O)N[C@@H](CCCCN)C(=O)N[C@@H](CC(N)=O)C(=O)N[C@H](C(=O)NCC(=O)N[C@@H](CCCCN)C(=O)N[C@@H](C)C(=O)N[C@@H](C)C(=O)NCC(=O)N[C@@H](CCCCN)C(=O)N[C@@H](C)C(=O)N[C@H](C(=O)N[C@@H](CC(C)C)C(N)=O)C(C)C)C(C)C` [ALWKSILKNVGKAAGKAVL] was tested, and the MIC [1] was 2 µM (≈ 3.93 µg/mL), the MIC [2] was 4 µM (≈ 7.87 µg/mL) and the MIC [3] was 8 µM (≈ 15.7 µg/mL). The MIC [4] was 2 µM (≈ 3.93 µg/mL), the MIC [5] was 2 µM (≈ 3.93 µg/mL) and the MIC [6] was 11.3 µM (≈ 22.2 µg/mL). For the same molecule, the MIC [7] was ≥ 256 µM and the MIC [8] was ≥ 32 µM.

Work on `CC[C@H](C)[C@H](NC(=O)[C@H](CCCN=C(N)N)NC(=O)[C@@H]1CCCN1C(=O)[C@H](CC(C)C)NC(=O)[C@H](Cc1ccccc1)NC(=O)[C@H](CCCCN)NC(=O)[C@H](CO)NC(=O)[C@H](Cc1ccccc1)NC(=O)[C@H](Cc1c[nH]c2ccccc12)NC(=O)[C@@H]1CCCN1C(=O)[C@@H](NC(=O)[C@@H](N)Cc1ccccc1)C(C)C)C(=O)N[C@@H](CC(C)C)C(N)=O` [FVPWFSKFLPRIL] yielded an MIC [9] of 24 µM (≈ 39.6 µg/mL), an MIC [10] of 3 µM (≈ 4.95 µg/mL) and an MIC [11] of 12 µM (≈ 19.8 µg/mL). For the same molecule, the MIC [12] was 12 µM (≈ 19.8 µg/mL), the MIC [13] was 12 µM (≈ 19.8 µg/mL) and the MIC [2] was > 48 µM. The MIC [14] was 48 µM (≈ 79.2 µg/mL), the MIC [15] was 12 µM (≈ 19.8 µg/mL) and the MIC [16] was 12 µM (≈ 19.8 µg/mL). The MIC [17] was 12 µM (≈ 19.8 µg/mL), the MIC [18] was 24 µM (≈ 39.6 µg/mL) and the MIC [19] was ≥ 48 µM. It also gave an MIC [20] of 48 µM (≈ 79.2 µg/mL), an MIC [21] of 48 µM (≈ 79.2 µg/mL) and an MIC [22] of 24 µM (≈ 39.6 µg/mL). For the same molecule, the MIC [23] was 12 µM (≈ 19.8 µg/mL), the MIC [24] was 24 µM (≈ 39.6 µg/mL) and the MIC [25] was 24 µM (≈ 39.6 µg/mL).

With `CC[C@H](C)[C@H](NC(=O)[C@@H](NC(=O)[C@H](CO)NC(=O)[C@H](C)NC(=O)[C@@H](NC(=O)[C@H](CCCCN)NC(=O)[C@H](CCCCN)NC(=O)[C@@H](NC(=O)[C@@H](NC(=O)[C@H](C)NC(=O)[C@H](Cc1ccccc1)NC(=O)[C@H](CC(C)C)NC(=O)CN)C(C)C)[C@@H](C)CC)C(C)C)C(C)C)C(=O)NCC(=O)NCC(=O)O` [GLFAVIKKVASVIGG] the MIC [26] was > 351 µM, the MIC [27] was 351 µM (≈ 512 µg/mL) and the MIC [28] was ≥ 351 µM. For the same molecule, the MIC [29] was ≥ 351 µM and the MIC [30] was ≥ 351 µM.

With `CC[C@H](C)[C@H](NC(=O)[C@@H](NC(=O)[C@H](CC(=O)O)NC(=O)[C@H](Cc1ccccc1)NC(=O)[C@H](CC(C)C)NC(=O)CN)C(C)C)C(=O)N[C@@H](CCCCN)C(=O)N[C@@H](CCCCN)C(=O)N[C@H](C(=O)N[C@@H](C)C(=O)N[C@@H](CO)C(=O)O)C(C)C` [GLFDVIKKVAS] the MIC [26] was > 870 µM, the MIC [27] was 870 µM (≈ 1020 µg/mL) and the MIC [28] was ≥ 870 µM. The MIC [29] was ≥ 870 µM and the MIC [30] was ≥ 435 µM.

`C[C@H](NC(=O)[C@H](C)NC(=O)[C@H](C)NC(=O)[C@H](CCCCN)NC(=O)[C@H](C)NC(=O)[C@H](C)NC(=O)[C@H](C)NC(=O)[C@H](CCCCN)NC(=O)[C@@H](N)CCCCN)C(=O)N[C@@H](C)C(=O)N[C@@H](C)C(=O)N[C@@H](CCCCN)C(=O)N[C@@H](C)C(=O)N[C@@H](C)C(=O)N[C@@H](Cc1c[nH]c2ccccc12)C(=O)N[C@@H](C)C(=O)N[C@@H](C)C(=O)N[C@@H](CCCCN)C(=O)N[C@@H](C)C(=O)N[C@@H](C)C(=O)N[C@@H](C)C(=O)N[C@@H](CCCCN)C(=O)N[C@@H](CCCCN)C(=O)N[C@@H](CCCCN)C(=O)N[C@@H](CCCCN)C(N)=O` [KKAAAKAAAAAKAAWAAKAAAKKKK] was tested, and the MIC [31] was ≥ 64 µM, the MIC [32] was ≥ 64 µM and the MIC [33] was 16 µM (≈ 38.8 µg/mL). For the same molecule, the MIC [34] was ≥ 64 µM.

`CSCC[C@H](NC(=O)[C@H](C)NC(=O)[C@H](C)NC(=O)[C@H](C)NC(=O)[C@H](CCCCN)NC(=O)[C@@H](N)CCCCN)C(=O)N[C@@H](C)C(=O)N[C@@H](C)C(=O)N[C@@H](C)C(=O)N[C@@H](C)C(=O)N[C@@H](C)C(=O)N[C@@H](CCSC)C(=O)N[C@@H](C)C(=O)N[C@@H](C)C(=O)N[C@@H](Cc1c[nH]c2ccccc12)C(=O)N[C@@H](C)C(=O)N[C@@H](C)C(=O)N[C@@H](CCSC)C(=O)N[C@@H](C)C(=O)N[C@@H](C)C(=O)N[C@@H](C)C(=O)N[C@@H](CCCCN)C(=O)N[C@@H](CCCCN)C(=O)N[C@@H](CCCCN)C(=O)N[C@@H](CCCCN)C(N)=O` [KKAAAMAAAAAMAAWAAMAAAKKKK] was tested, and the MIC [31] was ≥ 32 µM, the MIC [32] was ≥ 32 µM and the MIC [33] was 0.5 µM (≈ 1.22 µg/mL). The MIC [34] was 16 µM (≈ 38.9 µg/mL).

`CC(C)C[C@H](NC(=O)[C@H](CC(C)C)NC(=O)[C@H](Cc1c[nH]c2ccccc12)NC(=O)[C@H](CCCCN)NC(=O)[C@H](CC(C)C)NC(=O)[C@H](CC(C)C)NC(=O)[C@H](Cc1c[nH]c2ccccc12)NC(=O)[C@H](CCCCN)NC(=O)[C@@H](N)CC(C)C)C(N)=O` [LKWLLKWLL] showed an MIC [11] of 1.07 µM (≈ 1.3 µg/mL), an MIC [35] of 8.25 µM (≈ 9.99 µg/mL) and an MIC [36] of 4.12 µM (≈ 5 µg/mL). It also gave an MIC [37] of 2.06 µM (≈ 2.5 µg/mL), an MIC [2] of 8.25 µM (≈ 9.99 µg/mL) and an MIC [38] of 2.06 µM (≈ 2.5 µg/mL). For the same molecule, the MIC [39] was 2.06 µM (≈ 2.5 µg/mL), the MIC [40] was 1.07 µM (≈ 1.3 µg/mL) and the MIC [21] was 4.12 µM (≈ 5 µg/mL). The MIC [41] was 1.07 µM (≈ 1.3 µg/mL).

With `CC(C)C[C@H](NC(=O)[C@@H](N)CCCN=C(N)N)C(=O)N[C@@H](Cc1ccc(O)cc1)C(=O)N[C@@H](CCCN=C(N)N)C(N)=O` [RLYR] the MIC [42] was 4.5 µM and 10.2 µM, the MIC [43] was 1.3 µM and 1.8 µM and the MIC [20] was 4.7 µM and 10.2 µM. For the same molecule, the MIC [21] was 6.1 µM and 10.2 µM and the MIC [44] was 10 µM and 6.4 µM.
